Converted amounts (≈) assume the structure as drawn. Read-outs that look alike come from different tables or passages of the source.
Key:
K. pneumoniae ATCC 13883 = assay: MIC, broth microdilution (CLSI); format: cell-based, Klebsiella pneumoniae; conditions: for MIC with β-lactamase inhibitor (βI): + 4 μg/mL clavulanic acid; for MIC: Klebsiella pneumoniae
Experimental: (§1) All bacterial strains (see description and sources Table S1) were stored at −80 °C, and grown on tryptone soya agar (TSA) at 35 °C. The iron-deprived (ID)-MHBCA (cation-adjusted Muller-Hinton Broth, Becton Dickinson, Mississauga, ON, Canada) medium was prepared as reported by refs. [21],[50]. Briefly, MHBCA was treated with 10% Chelex® 50-100 mesh (Sigma) and stirred for 6 h at room temperature. The resin was removed by filtration. Divalent Ca^2+ (CaCl2), Mg^2+ (MgCl2), and Zn^2+(ZnSO4), were then added in the iron-depleted medium at 22, 12, and 1 μg/ml respectively. Finally, the pH was adjusted to 7.3, and the medium was sterilized with a 0.2-μm filter. Regular MHBCA (i.e., not treated with Chelex®) was used to compare the inhibitory activity of conjugates in iron-sufficient conditions. The resin used for Chelex treatment was always fresh and had never been regenerated, ensuring consistent iron removal.
(§2) Minimal inhibitory concentrations (MICs) were performed using a broth microdilution technique according to the Clinical and Laboratory Standards Institute (CLSI) guidelines. MICs were determined in MHBCA and in ID-MHBCA. To check the impact of β-lactamases, MICs in the presence of a β-lactamase inhibitor were also determined. The inhibitor was homogenized at 2X the final concentration and added to the bacterial inoculum just before distributing cells into the wells containing the drug dilutions. The final concentration of each inhibitor was 4 μg/mL for clavulanic acid (tested against K. pneumoniae) and 200 μg/mL for 3-aminophenylboronic acid (tested against P. aeruginosa and A. baumannii).

A. baumannii ATCC 19606 = assay: MIC, broth microdilution (CLSI); format: cell-based, Acinetobacter baumannii
Experimental: as §1, §2

PBP1a/1b = assay: Membrane PBP binding assay, competition with Bocillin FL; conditions: K. pneumoniae ATCC 13883 membranes
Experimental: (§3) Membrane extracts containing PBPs were obtained as described above. Briefly, all species were grown in 1 L of TSB until the OD600 reached 0.9. The washed pellet was incubated with lysozyme (400 μg/mL), DNase (10 μg/mL) RNase(10 μg/mL) and anti-protease cocktail (200 mg/20 mL). Lysis was done with a French press (20,000 psi) and membrane protein were pelleted by ultracentrifugation steps (100,000 × g). The pellet was suspended in a minimal volume (300–500 μL) of KP 0.05 M buffer at pH 7. The protein concentration in the membrane preparations was determined with the Micro BCA TM Protein Assay Kit (Thermo Fisher Scientific, Rockford, IL) using bovine serum albumin as a standard.
(§4) The PBP binding assay was done as described previously[36],[56],[57]. For each antibiotic concentration tested, a quantity of 25 to 40 μg of membrane preparation was used as the source of PBPs, depending on the species. For the purified PaPBP3, 150 ng was used in the assay. First, increasing concentrations of the test antibiotic was added to the membrane or purified PaPBP3 preparations and incubated for 10 min at 30 °C. The reporter molecule Bocillin FL was then added at 12.5 μM for the membrane PBPs preparations and at 500 nM for the pure PaPBP3 samples for an additional 20 min at 30 °C. All reactions were stopped with the addition of the Laemmli-loading buffer (Bio-Rad) containing fresh β-mercaptoethanol (Sigma). All reactions were then heated at 100°C for 3 min before migration on SDS-polyacrylamide discontinuous gel system (7.5% stacking and 10% separating). Control samples without Bocillin FL were also included to highlight autofluorescent proteins that are not PBPs.
(§5) To be able to visualize labeled PBPs after electrophoresis, gels were rinsed in water and fixed in a solution of 50% methanol and 7% acetic acid for 30 min. The fluorescent images of gels were obtained with the Typhoon FLA 9500 instrument (GE-Healthcare Bio-Sciences Inc., Baie-d’Urfé, QC, CA) using a 473 nm excitation wavelength. To obtain quantifiable data, the software Quantity One 1D analysis was used (version 4.6.6; Bio-Rad Laboratories, Richmond, CA). The volume (intensity × constant area) of each PBP was measured. […] All IC50 data were obtained from at least two independent PBP binding assays using two different sets of compound concentrations using a linear regression. The PBP profiles were confirmed, and the PBP numbering were determined using published data and individual molecular weights. […] For example, amdinocillin (Sigma) was used for PBP2 identification. […] The IC50 for PBP 2 of P. aeruginosa was measured by including the SDS-PAGE comigrating autofluorescent protein in the background, as done previously.

PBP1a = molecular target: T1, PBP1a (Pseudomonas aeruginosa, UniProt Q07806); assay: as above; conditions: P. aeruginosa ATCC 27853 membranes; read-out: IC50 PBP1a
T1 construct: using bacterial membranes as the source of PBPs; endogenous in cells; host or cells: P. aeruginosa ATCC 27853 membrane preparation
T1 sequence (Q07806 whole entry): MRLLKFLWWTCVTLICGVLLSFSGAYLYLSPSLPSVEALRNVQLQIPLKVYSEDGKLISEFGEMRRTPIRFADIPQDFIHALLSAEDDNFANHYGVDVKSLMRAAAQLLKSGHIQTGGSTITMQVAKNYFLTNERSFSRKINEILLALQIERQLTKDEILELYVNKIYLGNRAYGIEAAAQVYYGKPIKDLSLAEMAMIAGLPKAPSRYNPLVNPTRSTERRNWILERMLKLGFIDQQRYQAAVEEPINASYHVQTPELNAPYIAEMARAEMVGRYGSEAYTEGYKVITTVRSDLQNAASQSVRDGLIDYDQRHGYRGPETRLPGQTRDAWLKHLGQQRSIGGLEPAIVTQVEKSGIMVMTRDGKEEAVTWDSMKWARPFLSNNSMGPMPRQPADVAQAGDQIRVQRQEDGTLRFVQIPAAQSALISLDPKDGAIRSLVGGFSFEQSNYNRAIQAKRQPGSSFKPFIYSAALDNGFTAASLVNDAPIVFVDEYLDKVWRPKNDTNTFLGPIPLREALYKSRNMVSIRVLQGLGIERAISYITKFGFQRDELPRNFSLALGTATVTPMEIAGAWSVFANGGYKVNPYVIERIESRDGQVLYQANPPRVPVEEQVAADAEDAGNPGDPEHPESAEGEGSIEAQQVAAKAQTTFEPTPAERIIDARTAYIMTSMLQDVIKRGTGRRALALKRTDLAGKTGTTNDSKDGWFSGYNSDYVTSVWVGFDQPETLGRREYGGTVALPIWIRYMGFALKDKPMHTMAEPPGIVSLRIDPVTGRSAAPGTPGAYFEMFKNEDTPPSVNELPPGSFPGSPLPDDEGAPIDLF
Experimental: as §3, §4, §5

E. coli Δfiu = assay: MIC, Keio mutant; format: cell-based, Escherichia coli; conditions: Escherichia coli
Experimental: as §1, with “conditions.” for “conditions. The resin used for Chelex treatment was always fresh and had never been regenerated, ensuring consistent iron removal.”
as §2

E. coli ΔfhuA = assay: MIC, Keio mutant; format: cell-based, Escherichia coli; conditions: Escherichia coli
Experimental: as §1, with “conditions.” for “conditions. The resin used for Chelex treatment was always fresh and had never been regenerated, ensuring consistent iron removal.”
as §2

E. coli ΔcirA = assay: MIC, Keio mutant; format: cell-based, Escherichia coli; conditions: Escherichia coli
Experimental: as §1, with “conditions.” for “conditions. The resin used for Chelex treatment was always fresh and had never been regenerated, ensuring consistent iron removal.”
as §2

N[C@@H](C(=O)N[C@@H]1C(=O)N2C(C(=O)O)=C(Cl)CS[C@H]12)c1ccccc1 [CEF, cefaclor, reference compound]
MIC ratio 0/1 (K. pneumoniae ATCC 13883; ID-MHBCA, 0 and 1 µg/mL supplemental iron (Table S2)): 2 | MIC ratio 1/0 (K. pneumoniae ATCC 13883; ID-MHBCA, 1 versus 0 µg/mL supplemental iron (peer review file table)): 2 | MIC with β-lactamase inhibitor (βI) (K. pneumoniae ATCC 13883; ID-MHBCA): 1.6 µM | MIC (K. pneumoniae ATCC 13883; ATCC13883, ID-MHBCA (−), 0 µg/mL supplemental iron): 3.1 µM (≈ 1.14 µg/mL) | MIC (K. pneumoniae ATCC 13883; ATCC13883, ID-MHBCA + 0.1 µg/mL supplemental iron): 3.1 µM | MIC (K. pneumoniae ATCC 13883; ATCC13883, ID-MHBCA + 1 µg/mL supplemental iron): 6.3 µM | MIC (K. pneumoniae ATCC 13883; ATCC13883, MHBCA (+)): 3.1 µM (≈ 1.14 µg/mL) | MIC with β-lactamase inhibitor (βI) (K. pneumoniae ATCC 13883; MHBCA): 1.6 µM | MIC (A. baumannii ATCC 19606; Acinetobacter baumannii, ATCC19606, ID-MHBCA (−), 0 µg/mL supplemental iron, read-out: MIC): > 200 µM | MIC (A. baumannii ATCC 19606; Acinetobacter baumannii, ATCC19606, ID-MHBCA + 1 µg/mL supplemental iron, read-out: MIC): > 200 µM | MIC (A. baumannii ATCC 19606; Acinetobacter baumannii, ATCC19606, ID-MHBCA, + 200 μg/mL APB, read-out: MIC with β-lactamase inhibitor (βI)): > 200 µM | MIC (A. baumannii ATCC 19606; Acinetobacter baumannii, ATCC19606, MHBCA (+), no inhibitor, read-out: MIC): > 200 µM | MIC (A. baumannii ATCC 19606; Acinetobacter baumannii, ATCC19606, MHBCA, + 200 μg/mL APB, read-out: MIC with β-lactamase inhibitor (βI)): > 200 µM | MIC (A. baumannii ATCC 19606; ID-MHBCA (−), 0 µg/mL supplemental iron, read-out: MIC): >200 µM | MIC (A. baumannii ATCC 19606; MHBCA (+), no inhibitor, read-out: MIC): >200 µM | MIC in combination with PAβN (A. baumannii ATCC 19606; MHBCA, + 25 µg/mL PAβN): > 200 µM | IC50 (PBP1a/1b): 7.9 ± 1.5 µM | IC50 (PBP1a): 33.9 ± 6.9 µM | MIC (E. coli Δfiu; ID-MHBCA): 13 µM (≈ 4.78 µg/mL) | MIC (E. coli Δfiu; MHBCA): 13 µM (≈ 4.78 µg/mL) | MIC (E. coli ΔfhuA; ID-MHBCA): 13 µM (≈ 4.78 µg/mL) | MIC (E. coli ΔfhuA; MHBCA): 13 µM (≈ 4.78 µg/mL) | MIC (E. coli ΔcirA; ID-MHBCA): 25 µM (≈ 9.2 µg/mL) | MIC (E. coli ΔcirA; MHBCA): 13 µM (≈ 4.78 µg/mL)
